# Results: patent publication US7863446B2, “Heterocycles” (Orchid Research Laboratories Limited, priority 2006, dated 2011)
# What was measured:
# Female Balb C = experiment: Psoriasis model (oxazolone induced dermatitis in mice); assay type: in vivo; details: topical on the ear, 24 hours after oxazolone
# Description: Inhibitory Activity in Psoriasis Model
# Oxazolone induced dermatitis in mice was performed as described in the literature. Female Balb C were selected in the age of 6-7 weeks for the study and 20-25 g. Mice were sensitized with oxazolone (15%) from Day 1 to day 6 by applying it on the shaved abdomen. Elicitation was done with oxazolone (2%) on the ear on day 7. Test compounds were applied topically on the ear 15 minutes and 6 hours post oxazolone application on day 7. 24 hours after oxazolone application, ear thickness is measured and ear were excised under anesthesia and weighed.
# TNF-α [1] = experiment: In vitro measurement of TNF-α in human PBMC (LPS stimulated); assay type: cell-based
# Outline: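 Healthy-volunteer PBMC (0.5 million/well) in RPMI were pre-incubated with compound 15 min at 37 °C. They were then stimulated with E. coli B4 LPS 1 μg/ml for 18 h at 37 °C, 5% CO2. TNF-α in culture medium was measured by ELISA.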
# Male Balbc mice = experiment: IBD-DSS model (DSS induced colitis); assay type: in vivo; details: Day 1 to 6, mice
# Description: Inhibitory Activity in IBD-DSS Model
# DSS Induced colitis test was performed as described by Axelsson et al., 1998. Male Balbc mice were selected in the age of 7-8 weeks for the study. Colitis in mice was induced by providing DSS (2%) in the drinking water from day 1 to 6. Mice were dosed from Day 1 to 6 with test compound suspended in vehicle containing 0.25% carboxymethyl cellulose and 0.5% Tween 80. The control animals received vehicle alone. Body weight and disease activity index was recorded daily during the experiment. After 6 days of treatment, animals were sacrificed; colon weight and colon length was recorded.
# TNF-α [2] = experiment: LPS induced sepsis for measurement of TNF-α inhibition in mice; assay type: in vivo; details: Mus musculus; TNF alpha inhibition in mice sepsis model
# Description: LPS Induced Sepsis for Measurement of TNF-α Inhibition in Mice
# The LPS induced sepsis model in mice was performed as described by Les sekut et al (J Lab Clin Med 1994; 124:813-20). Female Swiss albino mice were selected and the body weights were equivalent within each group. The mice were fasted for 20 hours with free access to water. The mice were dosed orally with the test compound suspended in vehicle containing 0.5% Tween 80 in 0.25% Carboxy-methylcellulose sodium salt. The control mice were administered the vehicle alone. After 30 minutes of oral dosing, mice were injected with 500 μg of Lipopolysaccharide (Escherichia coli, LPS: B4 from Siga) in phosphate buffer saline solution into the intraperitoneal cavity of the mice. After 90 minutes of LPS administration mice were bled via retro-orbital sinus puncture. Blood samples were stored overnight at 4° C. Serum samples were collected by centrifuging the samples at 4000 rpm for 15 minutes at 4° C. Immediately the serum samples were analysed for TNF-α levels using commercially available mouse TNF-α ELISA kit (Amersham Biosciences) and assay was performed by the manufacturer instruction.
# ED50 Measurement of TNF alpha Inhibition in Mice Sepsis Model
smiles,measurement,setting,value
"NS(=O)(=O)c1cccc(-c2c(-c3ccc(F)cc3)nc(C(F)(F)F)nc2-n2ccnc2)c1 [Example 80, 3-[4-(4-Fluorophenyl)-6-(1H-imidazol-1-yl)-2-(trifluoromethyl)pyrimidin-5-yl]benzenesulfonamide]",Psoriasis-acute-Oxazolone induced dermatitis % inhibition Ear Thick,Female Balb C,19.2%
same,Psoriasis-acute-Oxazolone induced dermatitis % inhibition Ear Wt,Female Balb C,18.9%
same,inhibition at 1 µM,"TNF-α [1]; 1 μM, NA = No activity, read-out: TNF-α Inhibition (%) at Conc. (1 μM)",30%
same,inhibition at 10 µM,"TNF-α [1]; 10 μM, read-out: TNF-α Inhibition (%) at Conc. (10 μM)",75.3%
same,IBD-DSS Model % Inhibition of DAI at 50 mg/kg,Male Balbc mice,35.94%
same,ED50,TNF-α [2],2.13 mg/kg
